# Source: the METLIN SMRT retention time set (Domingo-Almenara et al. 2019)
# Experiment: gradient 5% acetonitrile 3 min, to 50% in 2 min, to 85% in 15 min, held 3 min, 100 µL/min
# Settings: column: Zorbax Extend-C18 2.1 x 50 mm; eluents: water / acetonitrile, 0.1% formic acid
# Procedure, shortened: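 Mixtures of ~100 pure standards were chromatographed on a Zorbax Extend-C18 column (2.1 × 50 mm, 1.8 μm) at 100 μL/min using water and acetonitrile, each with 0.1% formic acid. Detection used a quadrupole time-of-flight mass spectrometer in positive and negative ionization mode, and data collection spanned 3 months. Retention time was obtained from adduct peaks picked computationally and each checked manually.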
row,SMILES,RP-LC retention time
1,CCN1c2cc(F)ccc2C(=O)NC12CCN(C(=O)c1ccc(OC)cc1)CC2,780 s
2,CCOc1ccc(-c2cc3c(=O)n(Cc4nc(-c5ccc(CC)cc5)no4)ncn3n2)cc1,1300 s
3,CCOC(=O)C1CCCN(c2cc(-n3nc(C)cc3C)ncn2)C1 (stereo not drawn),1040 s
4,CC(C)(C)NC(=O)N1CCC(CNC(=O)C(=O)Nc2ccccc2Cl)CC1,836 s
5,CC1(C)C(=O)NCCN1C(=O)c1cccc(C(F)(F)F)c1,662 s
6,Cc1cccc(-c2noc(Cn3ccn(-c4cc(C)ccc4C)c(=O)c3=O)n2)c1,963 s
7,CCOC(=O)c1c(C)[nH]c(CCC(=O)NCCN2CCCCC2)c1C,607 s
8,Cc1nc(-c2cn(C)c3ncccc23)sc1C(=O)Nc1ccc(F)cc1,1130 s
9,CS(=O)(=O)N1CCC(CNC(=O)C(=O)Nc2cc(Cl)ccc2C#N)CC1,743 s
10,O=C(CCc1csc(NC(=O)c2ccc(=O)[nH]c2)n1)NCc1ccccn1,542 s
11,COc1ccc(-c2nnc(-c3cc(S(=O)(=O)NC(C)(C)CO)ccc3Cl)o2)cc1,837 s
12,COc1nc2ccccc2nc1N1CCCC(C(=O)Nc2cccc(F)c2)C1 (stereo not drawn),1170 s
13,CCOc1cc(C(=O)Nc2nc(-c3ccc(OC)cc3)c(C)s2)cc(OCC)c1OCC,1360 s
14,COC(=O)c1cccc(NC(=O)Cn2c(C)cc(-c3nnc(C4CCC4)o3)c2C)c1,882 s
15,CC1CCCCN1CCCNC(=O)CCCn1c(=O)c2cccn2c2ccc(F)cc21 (stereo not drawn),639 s
16,O=C(Nc1ccccc1-c1nc2ccccc2[nH]1)c1ccccc1Cl,871 s
17,O=C(c1cnccn1)N1CCCC1c1nc(CCOCC2CC2)no1 (stereo not drawn),698 s
18,COc1cn(C)c(C(=O)NCCC(c2ccccc2)c2ccccc2)cc1=O,667 s
19,COc1ccc(CNc2nc3ccncc3n(C(C)C)c2=O)cc1,652 s
20,O=C(NCC(=O)N1CCCc2ccccc21)C1CCN(S(=O)(=O)c2ccc(Cl)cc2)CC1,914 s
21,CCCc1cc(N2CCN(C(=O)c3cc(OC)cc(OC)c3)CC2)nc2nncn12,576 s
22,Cn1nc(-c2nc(C3CC3)no2)c2c1CCN(C(=O)Nc1cccc(F)c1)C2,840 s

row,SMILES,RP-LC retention time
1,COc1ccc(NC(=O)Cn2c(=O)n(-c3ccc(C)cc3)c3ncccc32)cc1OC,802 s
2,CN1c2ccccc2C(=O)NC12CCN(C(=O)NCc1cccc(F)c1)CC2,722 s
3,CCOC(=O)c1c(NCCc2cccs2)c2ccc(Cl)cc2[nH]c1=O,821 s
4,Cc1cc(C)cc(C(=O)NC2CCN(c3cc(-c4ccccc4)[nH]n3)C2)c1 (stereo not drawn),770 s
5,Cc1nn(CC(=O)NCc2ccco2)c(=O)c2nc(-c3ccccc3)sc12,782 s
6,O=C(CSc1nccc(-c2ccc3c(c2)OCO3)n1)N1CCOCC1,690 s
7,Cn1c(C2CCN(C(=O)Nc3cccc(Cl)c3)CC2)cc(=O)n2nccc12,693 s
8,CCOCCCNC(=O)C1CCCN(S(=O)(=O)c2ccc3c(ccn3CC)c2)C1 (stereo not drawn),842 s
9,Cc1ccc2c(Nc3ccccc3F)c(C(=O)N3CCCC3)cnc2n1,555 s
10,Cc1ccc(C)c(NC(=O)N2CCCC(Cn3cnc4cccnc43)C2)c1 (stereo not drawn),676 s
11,Cn1c(=O)c2c(ncn2CCCNCC(O)c2cc(O)cc(O)c2)n(C)c1=O (stereo not drawn),952 s
12,COc1ccc(C(=O)N2CCCC2c2nc(-c3ccc(OC)c(OC)c3)no2)c(OC)c1 (stereo not drawn),866 s
13,CC1CN=C2C=C(N3CCN(C(=O)Nc4ccccc4Cl)CC3)N=CN21 (stereo not drawn),618 s
14,O=C1CCCN1CCCn1c(SCc2c(F)cccc2F)nc2ccccc2c1=O,895 s
15,Cc1ccccc1NS(=O)(=O)c1ccc(-c2nnc(C3CCC3)o2)o1,909 s
16,Cc1c(C(=O)N2CCN(Cc3nc(C(C)(C)C)cs3)CC2)cccc1[N+](=O)[O-],740 s
17,COc1ccc(-c2cc3nn(CC(=O)Nc4cc(C)ccc4C)c(=O)n3c(C)n2)cc1,975 s
18,O=C1NCCCCCCN(C(=O)C2CCCCC2)[C@H]2C[C@H](C(=O)N3CCc4ccccc4C3)C[C@@H]12,924 s
19,O=C(c1ccoc1)N1CCC(OCc2nc(C3CC3)no2)CC1,719 s
20,Cc1nc2cc(-c3noc(-c4ccccc4C)n3)ccc2o1,640 s
21,CCSc1nnc(NC(=O)CSc2nc3ccccc3o2)s1,832 s
22,CCOc1ccccc1C1NC(=O)N(CC(=O)Nc2ccc(C(F)(F)F)cc2)C2=C1C(=O)OC2 (stereo not drawn),888 s

row,SMILES,RP-LC retention time
1,Cc1ccc(S(=O)(=O)N2CCCN(c3ccc(=O)n(-c4ccccc4)n3)CC2)cc1C,912 s
2,Cn1ncc2c3ccccc3n(CCCC(=O)N3CCN(c4ccccn4)CC3)c2c1=O,607 s
3,COc1ccc(S(=O)(=O)Nc2cc(C)ccn2)cc1,616 s
4,Cc1ccc(C)c(NC(=O)N2CC(c3nc(C)no3)C3(CCOCC3)C2)c1 (stereo not drawn),693 s
5,CN(CCc1noc(COc2ccccc2F)n1)C(=O)NCCc1ccccc1,876 s
6,O=C(CSc1nnc(-c2ccco2)n1-n1cccc1)Nc1cccc(C(F)(F)F)c1,897 s
7,Oc1ccc(-c2nc3ccc(Cl)cn3c2Nc2ccc(Cl)cc2)cc1,733 s
8,O=C(NCCCN1CCc2ccccc2C1)c1sc2ncccc2c1-n1cccc1,679 s
9,COc1cc(C(=O)Nc2ccc(C)cc2-c2nc3ccccc3[nH]c2=O)cc(OC)c1OC,772 s
10,CCn1cc(CCN2CCN(S(=O)(=O)c3ccc(C#N)cc3)CC2)c2cccnc21,634 s
11,COc1ccc2c(c1)C1(CCN(S(=O)(=O)c3ccccc3F)C1)C(=O)N2C (stereo not drawn),901 s
12,C[C@H](NC(=O)/C(C#N)=C/c1cccc(Br)n1)c1ccccc1,934 s
13,O=C(NCc1csc(-c2ccccc2)n1)[C@H]1CCCN1C(=O)Nc1ccc(Br)cc1,874 s
14,CCOc1cc(=O)n2c(c1C(=O)OCc1ccc(Cl)cc1)CCCCC2,991 s
15,CC1CCN(S(=O)(=O)c2cc(-c3ccc(=O)[nH]n3)cs2)CC1,772 s
16,CCCNC(=O)C1CCN(c2cc(SCC(=O)Nc3ccc(OC)cc3)ncn2)CC1,692 s
17,COC(=O)c1cc2c(cc1NC(=O)c1cc(-c3cccnc3)nc3ccccc13)OCO2,884 s
18,O=C(Nc1ccccc1)OC1CCCC(NC(=O)C2(c3ccccc3)CCOCC2)C1 (stereo not drawn),857 s
19,COc1ccc(C(=O)NCCc2ccc(S(N)(=O)=O)cc2)nn1,604 s
20,O=C(NC1CCN(c2ccc(F)cc2)C1=O)c1ccc(F)c(Cl)c1 (stereo not drawn),877 s
21,O=C(Cc1cccs1)N1CCC(COc2ccc(C(=O)N3CCOCC3)cc2)CC1,734 s
22,CCc1ccc(CNC(=O)C2(c3ccc(NC(C)=O)cc3)CCC2)cc1,827 s

row,SMILES,RP-LC retention time
1,CC1(C(=O)NCc2ccccc2)CN(S(C)(=O)=O)CC(=O)N1Cc1ccc(Cl)cc1 (stereo not drawn),858 s
2,Cc1nn2c(NCc3ccccn3)c3c(nc2c1-c1ccccc1)CCCC3,602 s
3,CCOC(=O)C1CCCN(C(=O)C2c3ccccc3C(=O)N3CCc4cc(OC)c(OC)cc4C23)C1 (stereo not drawn),766 s
4,COc1cccc(-c2nc3cnccn3c2NCCC(=O)NC2CCCCC2)c1,710 s
5,CCn1cc(S(=O)(=O)Nc2cc(Cl)ccc2OC)c2cccnc21,908 s
6,COc1ccc(C2=Nc3ccccc3N(CC(=O)Nc3ccc4c(c3)OCCO4)C(=O)C2)cc1,913 s
7,Cc1nn(-c2ccc(F)cc2)c2sc(C(=O)NCCc3ccco3)cc12,1060 s
8,CCCN(c1ccc(OCC)cc1)c1nc(C(=O)OCC)nc2ccccc12,1120 s
9,Cc1cc(OCC(O)CNCc2ccco2)ccc1Cl (stereo not drawn),588 s
10,CCn1c(C(=O)N(C)c2ccc(Br)cc2)cc2c(=O)oc3ccccc3c21,1030 s
11,CCCOCCOC(=O)C1=C(C)NC2=C(C(=O)CC(C)(C)C2)C1c1cccc(OC)c1OC (stereo not drawn),875 s
12,COCCNC(=O)C1CCN(c2cncnc2N2CCCCC2)CC1,588 s
13,O=C(Nc1ccccc1)N1CCC2(CC1)N(C1CCCC1)C(=O)CS2=O (stereo not drawn),692 s
14,CN(C)c1cccc(-c2nc(-c3cn(-c4cccc(F)c4)nn3)no2)c1,1110 s
15,CCCCN(C)c1ccc(NC(=O)c2cccs2)cc1C(=O)O,623 s
16,COC(=O)c1c(NCCc2ccc(Cl)cc2)c2ccc(F)cc2[nH]c1=O,795 s
17,COc1ccc(-c2noc(CCCC(=O)Nc3nc(-c4ccc(Cl)cc4)c(C)s3)n2)cc1,1190 s
18,Cn1cc(C(CNC(=O)Nc2cccc(Br)c2)c2cccnc2)c2ccccc21 (stereo not drawn),755 s
19,CCOc1ccccc1NS(=O)(=O)c1c(C(=O)OC)sc2cccc(F)c12,974 s
20,O=C(Cc1cc(-c2ccco2)on1)NCc1ccccn1,581 s
21,CCc1ccc(C2=C(C)C(N3CCCN(C(=O)C4CCC4)CC3)=NS2(=O)=O)cc1,875 s
22,Cc1c(N2C(=O)c3cccc4cccc(c34)C2=O)c(=O)n(-c2ccccc2)n1C,644 s
